Values quoted from earlier work in patent US11819485B2, “Levodopa fractionated dose composition and use” (AVION PHARMACEUTICALS, LLC, priority 2018, dated 2023).
Like-named read-outs stand apart in the source and are kept apart here.

Tests used:
[1] = steady intravenous dose, plasma LD kept within efficacy-with-no-MRCs range, as long as the infusion lasted
[2] = not given; remark: listed apart in the source

**Q.** With `N[C@@H](Cc1ccc(O)c(O)c1)C(=O)O` [LD, Levodopa] as the molecule, how does the “duration of effect of each LD dose” value (beginning of the disease, orally administered LD) read?
**A.** 6 h

**Q.** What about the “duration of effect of each dose” value (early stages of the disease) of the same molecule?
**A.** approximately 6 hours

**Q.** And the “duration of effect of each dose” value (ultimately, as PD progresses)?
**A.** about 1.5 hours

**Q.** What about the “antiparkinsonian effect and dyskinesias during infusion” value [1] of the same molecule?
**A.** full antiparkinsonian effect (no wearing off) without any dyskinesias

**Q.** And the solubility in water [2]?
**A.** poorly soluble in water
